In patent US11076595B2, “1-(n,n-disubstituted carbamoyl) 4-(substituted sulfonyl)triazolin-5-one derivative, 4-(n,n-disubstituted carbamoyl) 1-(substituted sulfonyl)triazolin-5-one derivative, and herbicide containing said derivative as active ingredient” (HOKKO CHEMICAL INDUSTRY CO., LTD., priority 2017, dated 2021):

How the values were obtained:
Assay type in all cases: in vivo
[1] = test system: Echinochloa crus-galli; experiment: Test Example 3: herbicidal effect test by soil treatment in upland field; settings: upland field soil treatment 1 day after sowing; 120 g/10a; evaluated 14 days after treatment
Protocol: (§1) This test was performed with two replications per one formulation concentration plot, and 14 days after the formulation treatments, the weed suppression rate (%) was determined according to the following equation (Math. 1). Weed suppression rate (%)=(1−an average dry weight (g) of plants in treated plots/an average dry weight (g) of plants in untreated plots)×100 [Math. 1]
(§2) A pot having a size of 36 cm^2 was filled with field soil (alluvial soil) and after uniformly mixing the soil of the surface layer of 1 cm with 20 grains of each weed seed of crabgrass, Echinochloa crus-galli, Chenopodium album and Amaranthus viridis, the surface layer was pressed lightly. One day after the sowing, an emulsifiable concentrate prepared according to Formulation Example 5 by using the compound shown in Table 7 below was diluted with water, and the water-diluted formulation was sprayed on the soil surface at a ratio of 100 liter per 10 are. The application rate of the active ingredient, by conversion, corresponded to 120 g per 10 are. Fourteen days after the formulation treatment, the herbicidal effect was evaluated by the same criteria as in Test Example 1.

[2] = test system: Amaranthus viridis; experiment: as above; settings: upland field soil treatment 1 day after sowing; 120 g/10a; evaluated 14 days after treatment
Protocol: as §1, §2

[3] = test system: crabgrass; experiment: as above; settings: upland field soil treatment 1 day after sowing; 120 g/10a; evaluated 14 days after treatment
Protocol: as §1, §2

[4] = test system: Chenopodium album; experiment: as above; settings: upland field soil treatment 1 day after sowing; 120 g/10a; evaluated 14 days after treatment
Protocol: as §1, §2

[5] = test system: Echinochloa crus-galli; experiment: Test Example 4: herbicidal effect test by foliage treatment in upland field; settings: upland field foliage treatment 7 days after sowing; 120 g/10a; evaluated 14 days after treatment
Protocol: as §1
as §2, with “Seven days” for “One day”, “8” for “7”

[6] = test system: Amaranthus viridis; experiment: as above; settings: upland field foliage treatment 7 days after sowing; 120 g/10a; evaluated 14 days after treatment
Protocol: as §1
as §2, with “Seven days” for “One day”, “8” for “7”

[7] = test system: crabgrass; experiment: as above; settings: upland field foliage treatment 7 days after sowing; 120 g/10a; evaluated 14 days after treatment
Protocol: as §1
as §2, with “Seven days” for “One day”, “8” for “7”

[8] = test system: Chenopodium album; experiment: as above; settings: upland field foliage treatment 7 days after sowing; 120 g/10a; evaluated 14 days after treatment
Protocol: as §1
as §2, with “Seven days” for “One day”, “8” for “7”

[9] = test system: Scirpus juncoides; experiment: Test Example 2: herbicidal effect test by treatment during growing period in paddy field; settings: treatment 7 days after sowing, 120 g/10a, evaluated 14 days after treatment
How it was run: (§3)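 Paddy soil in flooded pots (~3 cm water), 30 seeds per species sown 0–1 cm deep, greenhouse. Emulsifiable concentrate diluted in water and dripped into the water 7 days after sowing at 120 g a.i. per 10 are. Suppression (%) from dry weight vs untreated, 14 days post-treatment, two replicates.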

[10] = test system: Monochoria vaginalis; experiment: as above; settings: treatment 7 days after sowing, 120 g/10a, evaluated 14 days after treatment
How it was run: as §3

[11] = test system: Lindernia pyxidaria; experiment: as above; settings: treatment 7 days after sowing, 120 g/10a, evaluated 14 days after treatment
How it was run: as §3

[12] = test system: Echinochloa crus-galli; experiment: as above; settings: treatment 7 days after sowing, 120 g/10a, evaluated 14 days after treatment
How it was run: as §3

[13] = test system: Scirpus juncoides; experiment: Test Example 1: herbicidal effect test by soil treatment in paddy field; settings: 120 g/10a, paddy soil treatment just after sowing, 14 days after treatment
How it was run: (§4)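 Flooded paddy-soil pots (1/10000 are, N:P:K 17:17:17 fertilizer, puddled) were sown with 30 seeds per species at 0–1 cm, water kept ~3 cm in a greenhouse. Emulsifiable concentrate diluted in water was dripped in right after sowing at 120 g a.i. per 10 are. Suppression (%) came from dry weight vs untreated at 14 days.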

[14] = test system: Monochoria vaginalis; experiment: as above; settings: 120 g/10a, paddy soil treatment just after sowing, 14 days after treatment
How it was run: as §4

[15] = test system: Lindernia pyxidaria; experiment: as above; settings: 120 g/10a, paddy soil treatment just after sowing, 14 days after treatment
How it was run: as §4

[16] = test system: Echinochloa crus-galli; experiment: as above; settings: 120 g/10a, paddy soil treatment just after sowing, 14 days after treatment
How it was run: as §4

CC(C)N(C(=O)n1ncn(S(=O)(=O)C(C)C)c1=O)c1ccc(F)cc1F [Compound 1-65]
100%: herbicidal effect (weed suppression rate), Echinochloa crus-galli [1] | herbicidal effect (weed suppression rate), Crabgrass [3] | weed suppression rate, Echinochloa crus-galli [12] | weed suppression rate, Scirpus juncoides [13] | weed suppression rate, Monochoria vaginalis [14] | weed suppression rate, Lindemia pyxidaria [15] | weed suppression rate, Echinochloa crus-galli [16]
90%: herbicidal effect (weed suppression rate), Chenopodium album [4] | herbicidal effect (weed suppression rate), Amaranthus viridis [6] | herbicidal effect (weed suppression rate), Crabgrass [7] | weed suppression rate, Scirpus juncoides [9] | weed suppression rate, Monochoria vaginalis [10] | weed suppression rate, Lindemia pyxidaria [11]
80%: herbicidal effect (weed suppression rate), Amaranthus viridis [2] | herbicidal effect (weed suppression rate), Echinochloa crus-galli [5] | herbicidal effect (weed suppression rate), Chenopodium album [8]

Cc1ccc(N(C(=O)n2ncn(S(=O)(=O)C(C)C)c2=O)C(C)C)c(F)c1 [Compound 1-79]
80%: herbicidal effect (weed suppression rate), Echinochloa crus-galli [1] | herbicidal effect (weed suppression rate), Chenopodium album [4] | herbicidal effect (weed suppression rate), Echinochloa crus-galli [5] | herbicidal effect (weed suppression rate), Chenopodium album [8] | weed suppression rate, Monochoria vaginalis [10] | weed suppression rate, Lindemia pyxidaria [11] | weed suppression rate, Monochoria vaginalis [14] | weed suppression rate, Lindemia pyxidaria [15]
90%: herbicidal effect (weed suppression rate), Amaranthus viridis [2] | herbicidal effect (weed suppression rate), Crabgrass [3] | herbicidal effect (weed suppression rate), Amaranthus viridis [6] | herbicidal effect (weed suppression rate), Crabgrass [7] | weed suppression rate, Scirpus juncoides [9] | weed suppression rate, Echinochloa crus-galli [12] | weed suppression rate, Scirpus juncoides [13] | weed suppression rate, Echinochloa crus-galli [16]

Cc1ccc(N(C(=O)n2ncn(S(=O)(=O)C3CC3)c2=O)C(C)C)c(F)c1 [Compound 1-221]
80%: herbicidal effect (weed suppression rate), Echinochloa crus-galli [1] | herbicidal effect (weed suppression rate), Chenopodium album [4] | weed suppression rate, Monochoria vaginalis [10] | weed suppression rate, Lindemia pyxidaria [11]
90%: herbicidal effect (weed suppression rate), Amaranthus viridis [2] | herbicidal effect (weed suppression rate), Crabgrass [3] | weed suppression rate, Scirpus juncoides [9] | weed suppression rate, Echinochloa crus-galli [12] | weed suppression rate, Scirpus juncoides [13] | weed suppression rate, Monochoria vaginalis [14] | weed suppression rate, Lindemia pyxidaria [15] | weed suppression rate, Echinochloa crus-galli [16]

CC(C)N(C(=O)n1ncn(S(=O)(=O)C2CC2)c1=O)c1ccc(C(F)(F)F)cc1Cl [Compound 1-229]
90%: herbicidal effect (weed suppression rate), Amaranthus viridis [2] | herbicidal effect (weed suppression rate), Crabgrass [3] | weed suppression rate, Scirpus juncoides [9] | weed suppression rate, Echinochloa crus-galli [12] | weed suppression rate, Scirpus juncoides [13] | weed suppression rate, Echinochloa crus-galli [16]
80%: herbicidal effect (weed suppression rate), Echinochloa crus-galli [1] | herbicidal effect (weed suppression rate), Chenopodium album [4] | weed suppression rate, Monochoria vaginalis [10] | weed suppression rate, Lindemia pyxidaria [11] | weed suppression rate, Monochoria vaginalis [14] | weed suppression rate, Lindemia pyxidaria [15]

CC(C)N(C(=O)n1ncn(S(=O)(=O)C(C)C)c1=O)c1ccc(F)nc1 [Compound 1-242]
80%: herbicidal effect (weed suppression rate), Echinochloa crus-galli [1] | herbicidal effect (weed suppression rate), Chenopodium album [4]
90%: herbicidal effect (weed suppression rate), Amaranthus viridis [2] | herbicidal effect (weed suppression rate), Crabgrass [3]

CC(C)N(C(=O)n1ncn(S(=O)(=O)C2CCCCC2)c1=O)c1ccc(F)cc1F [Compound 1-306]
90%: herbicidal effect (weed suppression rate), Amaranthus viridis [2] | herbicidal effect (weed suppression rate), Crabgrass [3] | weed suppression rate, Scirpus juncoides [9]
80%: herbicidal effect (weed suppression rate), Echinochloa crus-galli [1] | herbicidal effect (weed suppression rate), Chenopodium album [4]
100%: weed suppression rate, Monochoria vaginalis [10] | weed suppression rate, Lindemia pyxidaria [11] | weed suppression rate, Echinochloa crus-galli [12] | weed suppression rate, Scirpus juncoides [13] | weed suppression rate, Monochoria vaginalis [14] | weed suppression rate, Lindemia pyxidaria [15] | weed suppression rate, Echinochloa crus-galli [16]

CC(C)N(C(=O)n1ncn(S(=O)(=O)N(C)C)c1=O)c1ccc(Cl)nc1Cl [Compound 1-1136]
90%: herbicidal effect (weed suppression rate), Amaranthus viridis [6] | herbicidal effect (weed suppression rate), Crabgrass [7] | weed suppression rate, Scirpus juncoides [9] | weed suppression rate, Lindemia pyxidaria [11] | weed suppression rate, Scirpus juncoides [13] | weed suppression rate, Monochoria vaginalis [14] | weed suppression rate, Lindemia pyxidaria [15]
100%: weed suppression rate, Echinochloa crus-galli [12] | weed suppression rate, Echinochloa crus-galli [16]
80%: herbicidal effect (weed suppression rate), Echinochloa crus-galli [5] | herbicidal effect (weed suppression rate), Chenopodium album [8] | weed suppression rate, Monochoria vaginalis [10]

CCN(C)S(=O)(=O)n1cnn(C(=O)N(c2ccc(F)cc2F)C(C)C)c1=O [Compound 1-1139]
100%: weed suppression rate, Echinochloa crus-galli [16]
80%: herbicidal effect (weed suppression rate), Echinochloa crus-galli [1] | herbicidal effect (weed suppression rate), Chenopodium album [4] | weed suppression rate, Monochoria vaginalis [10] | weed suppression rate, Lindemia pyxidaria [11]
90%: herbicidal effect (weed suppression rate), Amaranthus viridis [2] | herbicidal effect (weed suppression rate), Crabgrass [3] | weed suppression rate, Scirpus juncoides [9] | weed suppression rate, Echinochloa crus-galli [12] | weed suppression rate, Scirpus juncoides [13] | weed suppression rate, Monochoria vaginalis [14] | weed suppression rate, Lindemia pyxidaria [15]

CCN(CC)S(=O)(=O)n1cnn(C(=O)N(c2ccc(F)cc2F)C(C)C)c1=O [Compound 1-1140]
90%: herbicidal effect (weed suppression rate), Amaranthus viridis [2] | herbicidal effect (weed suppression rate), Crabgrass [3] | weed suppression rate, Scirpus juncoides [13] | weed suppression rate, Echinochloa crus-galli [16]
80%: herbicidal effect (weed suppression rate), Echinochloa crus-galli [1] | herbicidal effect (weed suppression rate), Chenopodium album [4] | weed suppression rate, Monochoria vaginalis [14] | weed suppression rate, Lindemia pyxidaria [15]

CC(C)CN(C)S(=O)(=O)n1cnn(C(=O)N(c2ccc(F)cc2F)C(C)C)c1=O [Compound 1-1142]
80%: herbicidal effect (weed suppression rate), Echinochloa crus-galli [1] | herbicidal effect (weed suppression rate), Chenopodium album [4] | weed suppression rate, Monochoria vaginalis [10] | weed suppression rate, Lindemia pyxidaria [11] | weed suppression rate, Scirpus juncoides [13] | weed suppression rate, Monochoria vaginalis [14] | weed suppression rate, Lindemia pyxidaria [15]
100%: weed suppression rate, Echinochloa crus-galli [16]
90%: herbicidal effect (weed suppression rate), Amaranthus viridis [2] | herbicidal effect (weed suppression rate), Crabgrass [3] | weed suppression rate, Scirpus juncoides [9] | weed suppression rate, Echinochloa crus-galli [12]

CC(C)N(C(=O)n1ncn(S(=O)(=O)N2CCCCC2)c1=O)c1ccc(F)cc1F [Compound 1-1143]
80%: herbicidal effect (weed suppression rate), Echinochloa crus-galli [1] | herbicidal effect (weed suppression rate), Chenopodium album [4] | weed suppression rate, Monochoria vaginalis [10] | weed suppression rate, Lindemia pyxidaria [11] | weed suppression rate, Monochoria vaginalis [14] | weed suppression rate, Lindemia pyxidaria [15]
90%: herbicidal effect (weed suppression rate), Amaranthus viridis [2] | herbicidal effect (weed suppression rate), Crabgrass [3] | weed suppression rate, Scirpus juncoides [9] | weed suppression rate, Echinochloa crus-galli [12] | weed suppression rate, Scirpus juncoides [13] | weed suppression rate, Echinochloa crus-galli [16]

CC(C)N(C(=O)n1ncn(S(=O)(=O)C2CCOCC2)c1=O)c1ccc(F)cc1F [Compound 1-1150]
90%: herbicidal effect (weed suppression rate), Amaranthus viridis [6] | herbicidal effect (weed suppression rate), Crabgrass [7]
80%: herbicidal effect (weed suppression rate), Echinochloa crus-galli [5] | herbicidal effect (weed suppression rate), Chenopodium album [8]
100%: herbicidal effect (weed suppression rate), Echinochloa crus-galli [1] | herbicidal effect (weed suppression rate), Amaranthus viridis [2] | herbicidal effect (weed suppression rate), Crabgrass [3] | herbicidal effect (weed suppression rate), Chenopodium album [4]
